Measurements taken from patent publication US20180042232A1, “Methods and Compositions for Reducing Anguina Nematode Infestation and Improving Grass Quality” (Bayer CropScience LP, priority 2015, published 2018).

Experiments:
Type in all cases: in vivo
[1] = tested on: Anguina pacificae nematode galls; experiment: Nematode gall count of a treated Poa annua green, The Links at Spanish Bay; details: 171 DAA, untreated 22.8
From the text: FIG. 6 sets forth comparative numerical representations of Anguina pacificae nematode galls found in 100 cc untreated soil, 100 cc soil treated with azadirachtin+cimectacarb, and 100 cc soil treated with fluopyram at defined concentrations and doses. In the legend provided, each letter (e.g., “A,” “B,” “C,” etc.) represents a two week interval (e.g., AC=4-week interval).
Example 3 describes effects of various treatments on nematode population on a Poa annua green at The Links at Spanish Bay.
(§1) Trials are kept free of any pests that can interfere or impact and nematode evaluations and yields.
(§2) A Poa annua green is treated by spraying the active ingredient on foliage and waiting at least three hours before irrigating into the thatch/mat layer for upward movement into the stem region (just above the crown) where the nematode resides. One or more applications can be made in 2-8 weeks. The interval may be longer if control has not declined, or treatments are to be applied in different seasons (e.g., spring and fall).
In FIG. 6, a Poa annua green is evaluated and counts of nematode galls per 100 cc soil are taken 171 days after anthesis (DAA). The first column represents nematode count at 171 DAA in an untreated sample of turfgrass. The second column represents nematode count at 171 DAA in turfgrass treated with 250 g ai/ha fluopyram at 4-week intervals. […]

[2] = tested on: Poa annua turfgrass; experiment: Turf quality evaluation of a treated Poa annua green, Pebble Beach; details: 96 DAA, 1-9 scale (9 = best, 6 = acceptable), untreated 4.8
Experimental: FIG. 2 sets forth comparative turf quality evaluations of Poa annua turfgrass treated with fluopyram at defined concentrations and doses. In the legend provided, each letter (e.g., “A,” “B,” “C,” etc.) represents a two week interval (e.g., AC=4-week interval).
as §2
In FIG. 2, turf quality of a Poa annua green is evaluated 96 DAA. The first column represents turf quality at 96 DAA in an untreated sample of turfgrass. The second column represents turf quality at 96 DAA in turfgrass treated with 250 g ai/ha fluopyram at 4-week intervals. The third column represents turf quality at 96 DAA in turfgrass treated with 500 g ai/ha fluopyram at 4-week intervals. The fourth column represents turf quality at 96 DAA in turfgrass treated with 286 g ai/ha azadirachtin applied bi-weekly to the soil. FIG. 2 corresponds to Table 2, below.

[3] = tested on: Anguina pacificae nematode galls; experiment: Nematode gall count of a treated Poa annua green, Pebble Beach
From the text: FIG. 5 sets forth comparative numerical representations of Anguina pacificae nematodes galls found in 100 cc untreated soil, 100 cc soil treated with azadirachtin, and 100 cc soil treated with fluopyram at defined concentrations and doses. In the legend provided, each letter (e.g., “A,” “B,” “C,” etc.) represents a two week interval (e.g., AC=4-week interval).
Example 2 describes effects of various treatments on nematode population on a Poa annua green at Pebble Beach.
as §1, §2
In FIG. 5, a Poa annua green is evaluated and counts of nematode galls per 100 cc soil are taken 87 and 139 days after anthesis (DAA). The first and fifth columns represent nematode gall count at 87 and 139 DAA, respectively, in an untreated sample of turfgrass. The second and sixth columns represent nematode gall count at 87 and 139 DAA, respectively, in turfgrass treated with 250 g ai/ha fluopyram at 4-week intervals. The third and seventh columns represent nematode gall count at 87 and 139 DAA, respectively, in turfgrass treated with 500 g ai/ha fluopyram at 4-week intervals. The fourth and eighth columns represent nematode gall count at 87 and 139 DAA, respectively, in turfgrass treated with 286 g ai/ha azadirachtin applied bi-weekly to the soil. FIG. 5 corresponds to Table 5 (87 DAA) and Table 6 (139 DAA), below.

[4] = tested on: Poa annua turfgrass; experiment: Turf quality evaluation of a treated Poa annua green, The Links at Spanish Bay; details: 179 DAA, 0-10 scale (10 = best), untreated 5.5
Experimental: FIG. 7 sets forth comparative turf quality evaluations of Poa annua turfgrass treated with fluopyram at defined concentrations and doses. In the legend provided, each letter (e.g., “A,” “B,” “C,” etc.) represents a two week interval (e.g., AC=4-week interval).
as §2
In FIG. 7, turf quality of a Poa annua green is evaluated 179 DAA. The first column represents turf quality at 179 DAA in an untreated sample of turfgrass. The second column represents turf quality at 179 DAA in turfgrass treated with 250 g ai/ha fluopyram at 4-week intervals. The third column represents turf quality at 179 DAA in turfgrass treated with 500 g ai/ha fluopyram at 4-week intervals. The fourth column represents turf quality at 179 DAA in turfgrass treated with 286 g ai/ha azadirachtin applied bi-weekly to the soil. FIG. 7 corresponds to Table 8, below.

[5] = tested on: Poa annua turfgrass; experiment: Crop Circle ACS-430 canopy sensor vegetation index (RVI, NDVI) of a treated Poa annua green, Pebble Beach; details: for NDVI (Normalized Difference Vegetation Index) / RVI (Ratio Vegetation Index): Pebble Beach, 96 DAA; for NDVI (Normalized Difference Vegetation Index): untreated 0.7064; for RVI (Ratio Vegetation Index): untreated 5.830
From the text: FIG. 3 sets forth comparative RVI measurements of Poa annua turfgrass treated with fluopyram at defined concentrations and doses. In the legend provided, each letter (e.g., “A,” “B,” “C,” etc.) represents a two week interval (e.g., AC=4-week interval).
FIG. 4 sets forth comparative NDVI measurements of Poa annua turfgrass treated with fluopyram at defined concentrations and doses. In the legend provided, each letter (e.g., “A,” “B,” “C,” etc.) represents a two week interval (e.g., AC=4-week interval).
as §2
A Crop Circle ACS-430 active crop canopy sensor (Holland Scientific, Inc.) provided classic vegetation index data (RVI=Ratio Vegetation Indices; NDVI=Normalized difference vegetative index) from the turf canopy. Unlike passive radiometric light sensors, the Crop Circle ACS-430 is not limited by ambient lighting conditions and measurements were made by day due to its unique light source technology. Information produced by the sensor can be utilized to quantify the impact of nutrients, water, disease or other growing conditions on the turf plant. The ratio vegetation index (RVI) is formed by dividing the near infra-red irradiance by the red irradiance. Study plots were scanned at intervals to collect this quantitative data. The normalized difference vegetative index (NDVI) is calculated as follows: […]
where VIS and NIR stand for the spectral reflectance measurements acquired in the visible (red) and near-infrared regions, respectively.
In FIG. 3, RVI of a Poa annua green is evaluated 96 DAA. The first column represents RVI at 96 DAA in an untreated sample of turfgrass. The second column represents RVI at 96 DAA in turfgrass treated with 250 g ai/ha fluopyram at 4-week intervals. The third column represents RVI at 96 DAA in turfgrass treated with 500 g ai/ha fluopyram at 4-week intervals. The fourth column represents RVI at 96 DAA in turfgrass treated with 286 g ai/ha azadirachtin applied bi-weekly to the soil. FIG. 3 corresponds to Table 3, below.
In FIG. 4, NDVI of a Poa annua green is evaluated 96 DAA. The first column represents NDVI at 96 DAA in an untreated sample of turfgrass. The second column represents NDVI at 96 DAA in turfgrass treated with 250 g ai/ha fluopyram at 4-week intervals. The third column represents NDVI at 96 DAA in turfgrass treated with 500 g ai/ha fluopyram at 4-week intervals. The fourth column represents NDVI at 96 DAA in turfgrass treated with 286 g ai/ha azadirachtin applied bi-weekly to the soil. FIG. 4 corresponds to Table 4, below.

[6] = tested on: Anguina pacificae nematodes; experiment: Nematode count in soil of a treated Poa annua green, Pebble Beach; details: 87 DAA, untreated 212.5
From the text: FIG. 1 sets forth comparative numerical representations of Anguina pacificae nematodes found in 100 cc untreated soil, 100 cc soil treated with azadirachtin, and 100 cc soil treated with fluopyram at defined concentrations and doses. In the legend provided, each letter (e.g., “A,” “B,” “C,” etc.) represents a two week interval (e.g., AC=4-week interval).
Example 1 describes effects of various treatments on nematode population on a Poa annua green at Pebble Beach.
as §1, §2
In FIG. 1, a Poa annua green is evaluated and counts of nematodes per 100 cc soil are taken 87 days after anthesis (DAA). The first column represents nematode count at 87 DAA in an untreated sample of turfgrass. The second column represents nematode count at 87 DAA in turfgrass treated with 250 g ai/ha fluopyram at 4-week intervals. The third column represents nematode count at 87 DAA in turfgrass treated with 500 g ai/ha fluopyram at 4-week intervals. The fourth column represents nematode count at 87 DAA in turfgrass treated with 286 g ai/ha azadirachtin applied bi-weekly to the soil. FIG. 1 corresponds to Table 1, below.

[7] = 250 g ai/ha at 4-week intervals
[8] = 500 g ai/ha at 4-week intervals
[9] = 286 g ai/ha applied bi-weekly to the soil

O=C(NCCc1ncc(C(F)(F)F)cc1Cl)c1ccccc1C(F)(F)F [fluopyram, N-{2-[3-chloro-5-(trifluoromethyl)-2-pyridinyl]ethyl}-2-(trifluoromethyl) benzamide]
Nematode galls/100 cc soil [1, 7]: 4.3 galls/100 cc soil
Nematode galls/100 cc soil [1, 8]: 1.8 galls/100 cc soil
Turf Quality [2, 7]: 7.4
Turf Quality [2, 8]: 8.1
Nematode galls/100 cc soil ([3]; 250 g ai/ha at 4-week intervals, 87 DAA, untreated 31): 6 galls/100 cc soil
Nematode galls/100 cc soil ([3]; 250 g ai/ha at 4-week intervals, 139 DAA, untreated 19): 2 galls/100 cc soil
Nematode galls/100 cc soil ([3]; 500 g ai/ha at 4-week intervals, 87 DAA, untreated 31): 3 galls/100 cc soil
Nematode galls/100 cc soil ([3]; 500 g ai/ha at 4-week intervals, 139 DAA, untreated 19): 0.5 galls/100 cc soil
Turf Quality [4, 7]: 6.0
Turf Quality [4, 8]: 8.5
NDVI (Normalized Difference Vegetation Index) [5, 7]: 0.7634
RVI (Ratio Vegetation Index) [5, 7]: 7.475
NDVI (Normalized Difference Vegetation Index) [5, 8]: 0.7908
RVI (Ratio Vegetation Index) [5, 8]: 8.598
Vegetative index (RVI and NDVI) compared to the untreated control ([5]; averaged over the course of the study, Poa annua turfgrass): positively enhanced vegetative index
Nematodes/100 cc soil [6, 7]: 17.5 nematodes/100 cc soil
Nematodes/100 cc soil [6, 8]: 17.5 nematodes/100 cc soil

C/C=C(\C)C(=O)O[C@H]1C[C@@H](OC(C)=O)[C@@]2(C(=O)OC)CO[C@H]3[C@@H](O)[C@@](C)([C@]45O[C@@]4(C)[C@H]4C[C@@H]5O[C@@H]5OC=C[C@@]54O)[C@H]4[C@]1(CO[C@]4(O)C(=O)OC)[C@@H]32 [azadirachtin]
Turf Quality [2, 9]: 4.8
Nematode galls/100 cc soil ([3]; 286 g ai/ha applied bi-weekly to the soil, 87 DAA, untreated 31): 34 galls/100 cc soil
Nematode galls/100 cc soil ([3]; 286 g ai/ha applied bi-weekly to the soil, 139 DAA, untreated 19): 16 galls/100 cc soil
NDVI (Normalized Difference Vegetation Index) [5, 9]: 0.6865
RVI (Ratio Vegetation Index) [5, 9]: 5.425
Nematodes/100 cc soil [6, 9]: 270 nematodes/100 cc soil
